# Results: US7361665B2, “Inhibitors of c-Jun N-terminal kinases (JNK) and other protein kinases” (Vertex Pharmaceuticals Incorporated, priority 2002, dated 2008)
# Molecular target: T1, JNK3 (Homo sapiens, UniProt P53779)
# T1 construct: One such construct encodes amino acid residues Ser40-Glu402 of JNK3α1 and is preceded by Met and Gly residues; Met-Gly dipeptide (initiation Met plus Gly added for the NcoI site) (N); made in house; host or cells: E. coli BL21 (DE3)
# Experiment: JNK inhibition assay (spectrophotometric coupled-enzyme assay)
# Assay type: biochemical
# Details: activated JNK3 10 nM, 10 μM ATP, 30° C.; read-out: JNK3 Activity (Ki rating)
# Description: A BLAST search of the EST database using the published JNK3α1 cDNA as a query identified an EST clone (#632588) that contained the entire coding sequence for human JNK3α1. Polymerase chain reactions (PCR) using pfu polymerase (Strategene) were used to introduce restriction sites into the cDNA for cloning into the pET-15B expression vector at the NcoI and BamHI sites. The protein was expressed in E. coli. Due to the poor solubility of the expressed full-length protein (Met 1-Gln 422), an N-terminally truncated protein starting at Ser residue at position 40 (Ser 40) was produced. This truncation corresponds to Ser 2 of JNK1 and JNK2 proteins, and is preceded by a methionine (initiation) and a glycine residue. The glycine residue was added in order to introduce an NcoI site for cloning into the expression vector. In addition, systematic C-terminal truncations were performed by PCR to identify a construct that give rise to diffraction-quality crystals. One such construct encodes amino acid residues Ser40-Glu402 of JNK3α1 and is preceded by Met and Gly residues.
# Five mg of JNK3 was diluted to 0.5 mg/ml in 50 mM HEPES buffer, pH 7.5, containing 100 mM NaCl, 5 mM DTT, 20 mM MgCl2 and 1 mM ATP. GST-MKK7(DD) was added at a molar ratio of 1:2.5 GST-MKK7:JNK3. After incubation for 30 minutes at 25° C., the reaction mixture was concentrated 5-fold by ultrafiltration in a Centriprep-30 (Amicon, Beverly, Mass.), diluted to 10 ml and an additional 1 mM ATP added. This procedure was repeated three times to remove ADP and replenish ATP. The final addition of ATP was 5 mM and the mixture incubated overnight at 4° C.
# The activated JNK3/GST-MKK7(DD) reaction mixture was exchanged into 50 mM HEPES buffer, pH 7.5, containing 5 mM DTT and 5% glycerol (w/v) by dialysis or ultrafiltration. The reaction mixture was adjusted to 1.1 M potassium phosphate, pH 7.5, and purified by hydrophobic interaction chromatography (at 25° C.) using a Rainin Hydropore column. […] Activated JNK3 (i.e. doubly phosphorylated JNK3) was stored at −70° C. at 0.25-1 mg/ml.
# Compounds were assayed for the inhibition of JNK3 by a spectrophotometric coupled-enzyme assay. In this assay, a fixed concentration of activated JNK3 (10 nM) was incubated with various concentrations of a potential inhibitor dissolved in DMSO for 10 minutes at 30° C. in a buffer containing 0.1 M HEPES buffer, pH 7.5, containing 10 mM MgCl2, 2.5 mM phosphoenolpyruvate, 200 μM NADH, 150 μg/mL pyruvate kinase, 50 μg/mL lactate dehydrogenase, and 200 μM EGF receptor peptide. The EGF receptor peptide has the sequence […] (SEQ ID NO: 3), and is a phosphoryl acceptor in the JNK3-catalyzed kinase reaction. The reaction was initiated by the addition of 10 μM ATP and the assay plate is inserted into the spectrophotometer's assay plate compartment that was maintained at 30° C. The decrease of absorbance at 340 nm was monitored as a function of time. The rate data as a function of inhibitor concentration was fitted to competitive inhibition kinetic model to determine the Ki.
# The compound numbers correspond to the compound numbers in Tables 1-3.
# T1 sequence (P53779 40-402): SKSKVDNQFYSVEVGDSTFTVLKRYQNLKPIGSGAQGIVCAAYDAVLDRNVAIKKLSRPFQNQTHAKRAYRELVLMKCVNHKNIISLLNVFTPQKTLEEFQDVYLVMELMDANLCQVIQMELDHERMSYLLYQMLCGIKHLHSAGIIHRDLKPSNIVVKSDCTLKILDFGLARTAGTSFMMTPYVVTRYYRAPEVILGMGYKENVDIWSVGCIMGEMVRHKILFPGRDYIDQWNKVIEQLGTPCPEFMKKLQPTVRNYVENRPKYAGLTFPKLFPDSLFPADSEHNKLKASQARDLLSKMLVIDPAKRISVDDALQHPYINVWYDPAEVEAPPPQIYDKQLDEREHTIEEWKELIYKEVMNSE
row,Compound,Ki [nM]
1,COCn1c(-c2ccnc(Nc3ccc(F)cc3)n2)cnc1-c1ccccc1 [IIa-11],> 1000
2,COCn1c(-c2ccnc(Nc3ccccc3)n2)cnc1-c1ccccc1 [IIa-12],> 1000
3,COCn1c(-c2ccnc(Nc3ccc([N+](=O)[O-])cc3)n2)cnc1-c1ccccc1 [IIa-13],> 1000
4,COCn1c(-c2ccnc(Nc3cc(OC)cc(OC)c3)n2)cnc1-c1ccccc1 [IIa-15],> 1000
5,COCn1c(-c2ccnc(Nc3cccc(Br)c3)n2)cnc1-c1ccccc1 [IIa-16],> 1000
6,COCn1c(-c2ccnc(Nc3cccc(OCc4ccccc4)c3)n2)cnc1-c1ccccc1 [IIa-17],> 1000
7,COc1cccc(Nc2nccc(-c3cnc(-c4cccnc4)n3C)n2)c1 [IIa-18],100 to 1000
8,COc1cc(Nc2nccc(-c3cnc(-c4cccnc4)n3C)n2)cc(OC)c1 [IIa-19],100 to 1000
9,Cn1c(-c2ccnc(Nc3cccc(Br)c3)n2)cnc1-c1cccnc1 [IIa-20],100 to 1000
10,Cn1c(-c2ccnc(Nc3ccc([N+](=O)[O-])cc3)n2)cnc1-c1cccnc1 [IIa-21],100 to 1000
11,COC(=O)c1cccc(Nc2nccc(-c3cnc(-c4cccnc4)n3C)n2)c1 [IIa-22],100 to 1000
12,Clc1ccc(Nc2nccc(-c3cnc(Cc4c(Cl)cccc4Cl)[nH]3)n2)cc1 [IIa-23],100 to 1000
13,COc1cccc(Nc2nccc(-c3cnc(Cc4c(Cl)cccc4Cl)[nH]3)n2)c1 [IIa-25],< 100
14,COc1cc(Nc2nccc(-c3cnc(Cc4c(Cl)cccc4Cl)[nH]3)n2)cc(OC)c1 [IIa-26],100 to 1000
15,Clc1cccc(Cl)c1Cc1ncc(-c2ccnc(Nc3cccc(Br)c3)n2)[nH]1 [IIa-27],100 to 1000
16,Clc1cccc(Cl)c1Cc1ncc(-c2ccnc(Nc3ccccc3)n2)[nH]1 [IIa-28],100 to 1000
17,Clc1cccc(Cl)c1Cc1ncc(-c2ccnc(Nc3cccc(OCc4ccccc4)c3)n2)[nH]1 [IIa-29],100 to 1000
18,O=[N+]([O-])c1ccc(Nc2nccc(-c3cnc(Cc4c(Cl)cccc4Cl)[nH]3)n2)cc1 [IIa-30],100 to 1000
19,COC(=O)c1cccc(Nc2nccc(-c3cnc(Cc4c(Cl)cccc4Cl)[nH]3)n2)c1 [IIa-31],100 to 1000
20,Clc1ccc(Nc2nccc(-c3cnc(Cc4c(Cl)cccc4Cl)[nH]3)n2)cn1 [IIa-32],100 to 1000
21,"Clc1ccc(Nc2nccc(-c3cnc(-c4ccccc4)o3)n2)cc1 [IIb-1, (4-Chloro-phenyl)-[4-(2-phenyl-oxazol-5-yl)-pyrimidin-2yl]-amine]",> 1000
22,Fc1ccc(Nc2nccc(-c3cnc(-c4ccccc4)o3)n2)cc1 [IIb-2],100 to 1000
23,COc1cccc(Nc2nccc(-c3cnc(-c4ccccc4)o3)n2)c1 [IIb-3],100 to 1000
24,COc1cc(Nc2nccc(-c3cnc(-c4ccccc4)o3)n2)cc(OC)c1 [IIb-4],100 to 1000
25,c1ccc(Nc2nccc(-c3cnc(-c4ccccc4)o3)n2)cc1 [IIb-5],100 to 1000
26,c1ccc(COc2cccc(Nc3nccc(-c4cnc(-c5ccccc5)o4)n3)c2)cc1 [IIb-6],100 to 1000
27,O=[N+]([O-])c1ccc(Nc2nccc(-c3cnc(-c4ccccc4)o3)n2)cc1 [IIb-7],100 to 1000
28,Cc1nc(-c2cccs2)sc1-c1ccnc(Nc2ccc(Cl)cc2)n1 [IIc-24],> 1000
29,Cc1nc(-c2cccs2)sc1-c1ccnc(Nc2ccc([N+](=O)[O-])cc2)n1 [IIc-25],> 1000
